Laboratory results taken from ChEMBL document CHEMBL3596105, “Phospholipid derivatives of cladribine and fludarabine: synthesis and biological properties” (Bioorg Med Chem, 2015).

Key:
[1] = Antiproliferative activity against human MOLT3 cells assessed as cell growth inhibition after 48 hrs by MTT assay; type: functional, cell-based; conditions: MOLT-3, 48 h
[2] = test system: K562; experiment: Antiproliferative activity against human K562 cells assessed as cell growth inhibition after 48 hrs by MTT assay; type: functional, cell-based; conditions: K562, 48 h
[3] = test system: MCF7; experiment: Antiproliferative activity against human MCF7 cells assessed as cell growth inhibition after 48 hrs by MTT assay; type: functional, cell-based; conditions: MCF7, 48 h
[4] = Antiproliferative activity against human KG1 cells assessed as cell growth inhibition after 48 hrs by MTT assay; type: functional, cell-based; conditions: KG-1, 48 h
[5] = Antiproliferative activity against human RPMI8226 cells assessed as cell growth inhibition after 48 hrs by MTT assay; type: functional, cell-based; conditions: RPMI-8226, 48 h
[6] = Antiproliferative activity against human SKHEP1 cells assessed as cell growth inhibition after 48 hrs by MTT assay; type: functional, cell-based; conditions: SK-HEP1, 48 h
[7] = test system: ZR-75-1; experiment: Antiproliferative activity against human ZR-75-1 cells assessed as cell growth inhibition after 48 hrs by MTT assay; type: functional, cell-based; conditions: ZR-75-1, 48 h
[8] = Antiproliferative activity against human SK-UT-1B cells assessed as cell growth inhibition after 48 hrs by MTT assay; type: functional, cell-based; conditions: Skut1B
[9] = test system: HL-60; experiment: Antiproliferative activity against human HL60 cells assessed as cell growth inhibition after 48 hrs by MTT assay; type: functional, cell-based; conditions: HL-60, 48 h
[10] = test system: Raji; experiment: Antiproliferative activity against human Raji cells assessed as cell growth inhibition after 48 hrs by MTT assay; type: functional, cell-based
[11] = Antiproliferative activity against human M-HeLa cells assessed as cell growth inhibition after 48 hrs by MTT assay; type: functional, cell-based
[12] = Antiproliferative activity against human KG1 cells assessed as cell growth inhibition after 72 hrs by MTT assay; type: functional, cell-based; conditions: KG-1, 72 h
[13] = test system: K562; experiment: Antiproliferative activity against human K562 cells assessed as cell growth inhibition after 72 hrs by MTT assay; type: functional, cell-based; conditions: K562, 72 h
[14] = test system: MCF7; experiment: Antiproliferative activity against human MCF7 cells assessed as cell growth inhibition after 72 hrs by MTT assay; type: functional, cell-based; conditions: MCF7, 72 h
[15] = test system: HL-60; experiment: Antiproliferative activity against human HL60 cells assessed as cell growth inhibition after 72 hrs by MTT assay; type: functional, cell-based; conditions: HL-60, 72 h
[16] = test system: Rattus norvegicus; experiment: Prodrug conversion in Wistar rat assessed as slow F-ara-A release into bloodstream at 72 mg/kg, ig administered as single dose by HPLC analysis; type: ADME, organism-based; conditions: in vivo, po
[17] = test system: Rattus norvegicus; experiment: Prodrug conversion in Wistar rat assessed as smooth increase in F-ara-A concentration in serum at 72 mg/kg, ig administered as single dose by HPLC analysis; type: ADME, organism-based; conditions: in vivo, po
[18] = test system: Rattus norvegicus; experiment: Prodrug conversion in Wistar rat assessed as prolonged serum circulation of liberated F-ara-A at 72 mg/kg, ig administered as single dose by HPLC analysis; type: ADME, organism-based; conditions: in vivo, po
[19] = test system: Mus musculus; experiment: Cmax in ICR mouse assessed as F-ara-A concentration at 120.4 mg/kg, ig administered as single dose by HPLC analysis; type: ADME, organism-based; design: dose 120.4 mg/kg, route intragastric; conditions: in vivo, po
[20] = test system: Mus musculus; experiment: Tmax in ICR mouse assessed as F-ara-A concentration at 120.4 mg/kg, ig administered as single dose by HPLC analysis; type: ADME, organism-based; conditions: in vivo, po
[21] = test system: Mus musculus; experiment: Apparent half-life in ICR mouse assessed as F-ara-A content at 120.4 mg/kg, ig administered as single dose by HPLC analysis; type: ADME, organism-based; conditions: in vivo, po
[22] = test system: Mus musculus; experiment: Cmin in ICR mouse assessed as F-ara-A concentration at 120.4 mg/kg, ig administered as single dose after 24 hrs by HPLC analysis; type: ADME, organism-based; conditions: in vivo, po
[23] = test system: Rattus norvegicus; experiment: Prodrug conversion in Wistar rat assessed as slow F-ara-A release into bloodstream at 77 mg/kg, ig administered as single dose by HPLC analysis; type: ADME, organism-based; conditions: in vivo, po
[24] = test system: Rattus norvegicus; experiment: Prodrug conversion in Wistar rat assessed as smooth increase in F-ara-A concentration in serum at 77 mg/kg, ig administered as single dose by HPLC analysis; type: ADME, organism-based; conditions: in vivo, po
[25] = test system: Rattus norvegicus; experiment: Prodrug conversion in Wistar rat assessed as prolonged serum circulation of liberated F-ara-A at 77 mg/kg, ig administered as single dose by HPLC analysis; type: ADME, organism-based; conditions: in vivo, po
[26] = test system: ZR-75-1; experiment: Antiproliferative activity against human ZR-75-1 cells assessed as cell growth inhibition after 72 hrs by MTT assay; type: functional, cell-based; conditions: ZR-75-1, 72 h
[27] = Antiproliferative activity against human SK-UT-1B cells assessed as cell growth inhibition after 72 hrs by MTT assay; type: functional, cell-based; conditions: Skut1B
[28] = Antiproliferative activity against human M-HeLa cells assessed as cell growth inhibition after 72 hrs by MTT assay; type: functional, cell-based
[29] = test system: Mus musculus; experiment: Cmax in ICR mouse assessed as F-ara-A concentration at 50 mg/kg, ig administered as single dose by HPLC analysis; type: ADME, organism-based; design: dose 50 mg/kg, route intragastric; conditions: in vivo, po
[30] = test system: Mus musculus; experiment: Tmax in ICR mouse assessed as F-ara-A concentration at 50 mg/kg, ig administered as single dose by HPLC analysis; type: ADME, organism-based; conditions: in vivo, po
[31] = test system: Mus musculus; experiment: Apparent half-life in ICR mouse assessed as F-ara-A content at 50 mg/kg, ig administered as single dose by HPLC analysis; type: ADME, organism-based; conditions: in vivo, po
[32] = test system: Mus musculus; experiment: Cmin in ICR mouse assessed as F-ara-A concentration at 50 mg/kg, ig administered as single dose after 24 hrs by HPLC analysis; type: ADME, organism-based; conditions: in vivo, po

| Compound | IC50 [1] [µM] | IC50 [2] [µM] | IC50 [3] [µM] | IC50 [4] [µM] | IC50 [7] [µM] | IC50 [8] [µM] | IC50 [9] [µM] | IC50 [10] [µM] | IC50 [11] [µM] | IC50 [12] [µM] | other results |
| --- | --- | --- | --- | --- | --- | --- | --- | --- | --- | --- | --- |
| CCCCCCCCCCCCCCCC(=O)OCC(COC(=O)CCCCCCCCCCCCCCC)OP(=O)(O)OC[C@H]1O[C@@H](n2cnc3c(N)nc(Cl)nc32)C[C@@H]1O | > 100 | > 100 | > 100 | – | – | – | – | – | – | – | – |
| CCCCCCCCCCCCCC(=O)OCC(COP(=O)(O)OC[C@H]1O[C@@H](n2cnc3c(N)nc(Cl)nc32)C[C@@H]1O)OC(=O)CCCCCCCCCCCCC (some centres not stated) | 8 | 50 | > 100 | 17 | > 100 | > 100 | – | – | – | – | IC50 [5]: > 100 µM; IC50 [6]: > 100 µM |
| CCCCCCCCCCCCCCCC(=O)OCC(COP(=O)(O)OC[C@H]1O[C@@H](n2cnc3c(N)nc(Cl)nc32)C[C@@H]1O)OC(=O)CCCCCCCCCCCCCCC (some centres not stated) | > 100 | > 100 | > 100 | – | – | – | – | – | – | – | – |
| CCCCCCCCCCCCCC(=O)OCC(COC(=O)CCCCCCCCCCCCC)OP(=O)(O)OC[C@H]1O[C@@H](n2cnc3c(N)nc(Cl)nc32)C[C@@H]1O | > 100 | > 100 | > 100 | – | – | – | – | – | – | – | – |
| CCCCCCCCCCCCCC(=O)OCC(COP(=O)([O-])OC[C@H]1O[C@@H](n2cnc3c(N)nc(F)nc32)[C@@H](O)[C@@H]1O)OC(=O)CCCCCCCCCCCCC.[Na+] (some centres not stated) | > 100 | 45 | 45 | 55 | > 100 | > 100 | 30 | > 100 | > 100 | 9 | IC50 [13]: > 100 µM; IC50 [14]: 18 µM; IC50 [15]: 16 µM; Drug metabolism [16]: metabolite_detected; Drug metabolism [17]: metabolite_detected; Drug metabolism [18]: metabolite_detected; Cmax [19]: 1613 ng/mL; Tmax [20]: 2.8 h; t1/2(app) [21]: 14.2 h; Cmin [22]: 199 ng/mL |
| CCCCCCCCCCCCCCCC(=O)OCC(COP(=O)([O-])OC[C@H]1O[C@@H](n2cnc3c(N)nc(F)nc32)[C@@H](O)[C@@H]1O)OC(=O)CCCCCCCCCCCCCCC.[Na+] (some centres not stated) | > 100 | > 100 | > 100 | > 100 | > 100 | > 100 | > 100 | > 100 | > 100 | 75 | Drug metabolism [23]: metabolite_detected; Drug metabolism [24]: metabolite_detected; Drug metabolism [25]: metabolite_detected |
| CCCCCCCCCCCCCC(=O)OCC(COC(=O)CCCCCCCCCCCCC)OP(=O)([O-])OC[C@H]1O[C@@H](n2cnc3c(N)nc(F)nc32)[C@@H](O)[C@@H]1O.[Na+] | > 100 | 75 | > 100 | > 100 | > 100 | > 100 | 80 | > 100 | > 100 | 35 | IC50 [13]: > 100 µM; IC50 [14]: 45 µM; IC50 [26]: 75 µM; IC50 [27]: 55 µM; IC50 [15]: 65 µM; IC50 [28]: 45 µM; Drug metabolism [16]: metabolite_detected; Drug metabolism [17]: metabolite_detected; Drug metabolism [18]: metabolite_detected |
| CCCCCCCCCCCCCCCC(=O)OCC(COC(=O)CCCCCCCCCCCCCCC)OP(=O)([O-])OC[C@H]1O[C@@H](n2cnc3c(N)nc(F)nc32)[C@@H](O)[C@@H]1O.[Na+] | > 100 | > 100 | > 100 | > 100 | > 100 | > 100 | > 100 | > 100 | > 100 | – | Drug metabolism [23]: metabolite_detected; Drug metabolism [24]: metabolite_detected; Drug metabolism [25]: metabolite_detected |
| Nc1nc(Cl)nc2c1ncn2[C@H]1C[C@H](O)[C@@H](CO)O1 [CLADRIBINE] | 2.3 | 10 | 45 | 0.2 | > 100 | 1 | – | – | – | – | IC50 [5]: 6 µM; IC50 [6]: 4 µM |
| Nc1nc(F)nc2c1ncn2[C@@H]1O[C@H](COP(=O)(O)O)[C@@H](O)[C@@H]1O [FLUDARABINE PHOSPHATE] | 0.95 | 0.4 | 0.13 | 0.15 | 0.6 | 6 | 0.09 | 0.4 | 2 | – | Cmax [29]: 8989 ng/mL; Tmax [30]: 54 min; t1/2(app) [31]: 1.5 h; Cmin [32]: 13 ng/mL |
